Source: patent publication US6160020A, “Alkali metal and alkaline-earth metal salts of acetaminophen” (priority 1998, dated 2000)
Converted amounts (≈) assume the structure as drawn. Where a name gives a salt, the structure may show the parent alone. Read-outs that look alike come from different tables or passages of the source.

Legend:
[1] = cited from earlier work
[2] = aqueous solubility at 22° C.; assay type: physicochemical; conditions: for solubility equivalent of APAP free acid: expressed as APAP free acid, approximately
Procedure: Accordingly, the sodium, lithium and calcium salts have solubilities equivalent to approximately 260-280, 250-270, and 10 mg/mL, respectively, of APAP free acid.

[3] = dissolution of APAP form (powder) in 0.1N hydrochloric acid, USP Dissolution Apparatus 2; assay type: physicochemical; conditions: paddle 50 rpm, 37° C.
Procedure: In 0.1N hydrochloric acid using USP Dissolution Apparatus 2 (paddle speed: 50 rpm) at 37° C., the concentration of acetaminophen at 30 seconds was as follows: […]

in vivo = test: in vivo; design: species or system dog (male purebred beagles); conditions: dog, po
Procedure: A study was conducted in dogs to determine the bioavailability of acetaminophen sodium. The free acid form of acetaminophen was used as the control. Compressed cylindrical pellets having the following composition were prepared:
Acetaminophen Sodium--compressed neat (no excipients). Control--150 mg APAP, 30 mg microcrystalline cellulose, and 30 mg dextrates.
Eight male purebred beagles having a body weight at initial dosing of approximately 9 to 14 kg were used in the study. The dogs were fed PMI® Certified Canine Diet Meal No. 5007 and water, both ab libitum. The dogs were fasted overnight for approximately 12 hours prior to dosing and food was returned 4 hours after dosing.
The dogs were divided into two groups and each group was dosed with either acetaminophen sodium or the control (free acid APAP) pellets. A single dose equivalent to 300 mg of acetaminophen free acid was administered via an oral gavage using a stomach tube. Each dose was followed by 20 mL of water. After a period of one week, the each group was dosed again, but with the other form of acetaminophen. Twelve blood samples were collected form each dog on each dosing day (1 prior to dosing and 11 thereafter). The plasma was separated and tested for acetaminophen.

[4] = stability of anionic form of APAP in aqueous solution; assay type: physicochemical; conditions: pH>11
Procedure: The lack of discussion on APAP salts in the scientific literature may be due in part to the fact that the anionic form of APAP is stable in aqueous solution (pH>11) for only a short period of time (<24 h). If the salt is not quickly isolated after formation, p-aminophenolate (PAP) can form and result in discoloration of the resulting product.

| Structure (SMILES) | aqueous solubility [2] [mg/mL] | concentration of acetaminophen at 30 seconds [3] | also measured |
| --- | --- | --- | --- |
| CC(=O)Nc1ccc(OC(=O)CN)cc1 [APG-HBr, p-acetamidophenyl glycinate] |  |  | water solubility, fold more soluble than acetaminophen ([1]; relative to acetaminophen): five |
| CC(=O)Nc1ccc(OC(=O)CC(N)C(=O)O)cc1 (stereo not drawn) [BAPA-HCl, β-p-acetamidophenyl aspartate] |  |  | water solubility, fold less soluble than APAP ([1]; relative to APAP): four |
| CC(=O)Nc1ccc(O)cc1 [Calcium Salt, acetaminophen calcium] | 13 | 0.20 Mg/mL of APAP | solubility equivalent of APAP free acid [2]: ~10 mg/mL |
| CC(=O)Nc1ccc(O)cc1 [Free Acid, acetaminophen] |  | 0.02 Mg/mL of APAP |  |
| CC(=O)Nc1ccc(O)cc1 [I, acetaminophen sodium (C8 H8 NO2 Na.6H2 O)] | 493 |  |  |
| CC(=O)Nc1ccc(O)cc1 [II, acetaminophen sodium (C8 H8 NO2 Na.7H2 O)] | 541 |  |  |
| CC(=O)Nc1ccc(O)cc1 [III, acetaminophen calcium (C16 H16 N2 O4 Ca.2H2 O)] | 13 |  |  |
| CC(=O)Nc1ccc(O)cc1 [IV, acetaminophen lithium (C8 H8 NO2 Li.6H2 O)] | 455 (≈ 3010 mM) |  | aqueous solubility ([2]; listed as Example V): 472 mg/mL (≈ 3120 mM) |
| CC(=O)Nc1ccc(O)cc1 [Lithium Salt, acetaminophen lithium] |  | 0.32 Mg/mL of APAP | solubility equivalent of APAP free acid [2]: 250 to 270 mg/mL |
| CC(=O)Nc1ccc(O)cc1 [Sodium Salt, acetaminophen sodium] |  | 0.30 Mg/mL of APAP | solubility equivalent of APAP free acid [2]: 260 to 280 mg/mL; Tmax (in vivo): 16.2 ± 6 min |
| CC(=O)Nc1ccc(O)cc1 [anionic form of APAP] |  |  | stability in aqueous solution [4]: < 24 h |
